Earlier results as cited in patent publication US9358209B2, “Econazole composition and methods of treatment therewith” (Exeltis USA Dermatology, Inc., priority 2010, dated 2016).

Experiments:
[1] = test system: dermatophytes and yeasts; settings: most strains of E. floccosum, M. audouinii, M. canis, M. gypseum, T. mentagrophytes, T. rubrum, T. tonsurans, C. albicans, M. furfur
[2] = Liao et al., Yao Xue Xue Bao 28(1):22-7 (1993)

SMILES	activity against dermatophytes and yeasts [1]	antifungal activity relative to other stereoisomer [2]
Clc1ccc(COC(Cn2ccnc2)c2ccc(Cl)cc2Cl)cc1 (centres unmarked) [Econazole nitrate]	has shown activity	–
Clc1ccc(CO[C@@H](Cn2ccnc2)c2ccc(Cl)cc2Cl)cc1 [(R)-(−)-econazole]	–	greater antifungal activity
